From patent US4200626A, “Haloplatinate dental composition for preventing and inhibiting dental caries” (Toyo Seiyaku Kasei Co., Ltd., priority 1978, dated 1980) come the findings set out here.

For data set [1], the system named is protease (collagenase or trypsin). In words: Inhibition of protease digestion of the soft tissue in dentin (clear zone on opaque agar plates with decalcified dentin powder). The class given is biochemical. As to conditions: for Clear zone: aqueous solution pH 5.4. The protocol:
The ability to inhibit digestion of the soft tissue in dentin was estimated according to the method described by Yanagida et al [Yanagida et al, Shonishikagaku Zasshi, Vol. 9, page 39 (1971)]. That is, firstly, a certain amount of human decalcified dentin powder was treated with a composition to be tested for certain minutes and then unbonded excess components were removed by dialysis to obtain a sample powder. Then, opaque agar plates were prepared by adding the sample powder, and a protease (collagenase or trypsin) was added to the plates. The inhibiting ability was estimated by observing whether a clear zone was formed on the plate or not. The clear zone is formed by dissolution of the powder with the enzyme, and the formation thereof means digestion of the soft tissue in dentin.
Each composition used in the test is an aqueous solution at pH 5.4.

Data set [2] in a line: Inhibition of acid decalcification of the hard tissue in dentin (human dentin powder). As to conditions: for Inhibition rate of decalcification: solution containing 2% platinum (or saturated) or 2% NaF, pH 5.4. The protocol: The ability to inhibit decalcification of the hard tissue was also estimated according to the method described by Nishino [Nishino, Osaka University Shigaku Zasshi, Vol. 1, page 1 (1969)]. That is, firstly, a certain amount of human dentin powder was treated with a composition to be tested for certain minutes and then unbonded excess components were removed by washing with water to obtain a sample powder. Then, the sample powder was treated with an acid solution (decalcification) and the amount of calcium in the solution, which was dissolved in the solution by action of the acid, was determined (sample calcium content). Similarly, untreated dentin powder was added to an acid solution and the amount of calcium in the acid solution was determined (control calcium content). From these values, the inhibition rate of decalcification was calculated as follows: [formula]
As a reference, a similar test was done by using an aqueous solution containing 2% of sodium fluoride (pH 5.4).

The test system of data set [3] is mice. In words: LD50 in mice (p.o.). The class given is in vivo. The text has this:
Further, the dental composition of the present invention is useful from a viewpont of toxicity since these platinum compounds have lower toxicity than that of NaF.

With `[Cl][Pt-2]([Cl])([Cl])([Cl])([Cl])[Cl].[NH4+].[NH4+]` [(NH4)2 PtCl6, ammonium hexachloroplatinate], the Clear zone result was “Present” in data set [1] (platinum content 0.001%), “None” in data set [1] (platinum content 0.01%) and “None” in data set [1] (platinum content 0.1%).

Turning to `[Cl][Pt-2]([Cl])([Cl])[Cl].[K+].[K+]` [K2 PtCl4, potassium tetrachloroplatinate], the Clear zone entry in data set [1] (platinum content 0.001%) was “Present”; in data set [1] (platinum content 0.01%) it was “None”; in data set [1] (platinum content 0.1%) it was “None”. In addition, the “Inhibition rate of decalcification” value in data set [2] (decalcification time 0.5 hour) stood at 27.28%; in data set [2] (decalcification time 1.0 hour), 28.11%; in data set [2] (decalcification time 1.5 hour), 30.86%; in data set [2] (decalcification time 2.0 hour), 29.65%; in data set [2] (decalcification time 3.0 hour), 30.22%; in data set [2] (decalcification time 5.0 hour), 31.54%. Moreover, the “Inhibition rate of decalcification” value in data set [2] (decalcification time 24.0 hour) worked out at 31.69%; in data set [2] (decalcification time 48.0 hour), 32.27%. In data set [3], the “LD50 (p.o.)” value is listed as 97 mg per kg of body weight.

Turning to `[I-].[I-].[I-].[I-].[I-].[I-].[K+].[K+].[Pt+4]` [K2 PtI6, potassium hexaiodoplatinate], the results for the Clear zone result in data set [1] (platinum content 0.001%), in data set [1] (platinum content 0.01%) and in data set [1] (platinum content 0.1%) were “Present”, “None” and “None”, respectively.

For the molecule `[Cl][Pt-2]([Cl])([Cl])([Cl])([Cl])[Cl].[Na+].[Na+]` [Na2 PtCl6, sodium hexachloroplatinate], the Clear zone result was “Present” in data set [1] (platinum content 0.001%), “None” in data set [1] (platinum content 0.01%) and “None” in data set [1] (platinum content 0.1%). In addition, the “Inhibition rate of decalcification” value was determined as 43.42% in data set [2] (decalcification time 0.5 hour); 45.23% in data set [2] (decalcification time 1.0 hour); 45.15% in data set [2] (decalcification time 1.5 hour); 45.36% in data set [2] (decalcification time 2.0 hour); 47.57% in data set [2] (decalcification time 3.0 hour); 47.77% in data set [2] (decalcification time 5.0 hour). The entries for the “Inhibition rate of decalcification” value in data set [2] (decalcification time 24.0 hour) and in data set [2] (decalcification time 48.0 hour) were 48.00% and 48.20%, respectively. The “inhibiting effect on decalcification of the hard tissue in dentin” value in data set [2] (result in words, from Table 2) was “superior inhibiting effect to that containing NaF at every decalcification time and the effect thereof is not decreased even though after 48 hours”. Further, the “LD50 (p.o.)” value in data set [3] is listed as 130 mg per kg of body weight.

As to `[F-].[Na+]` [NaF, sodium fluoride, reference compound], in data set [1] (similar test using sodium fluoride, result in words), the “inhibition of the digestion” value is recorded as “no inhibition of the digestion was observed”. For the same molecule, the “Inhibition rate of decalcification” value in data set [2] (decalcification time 0.5 hour) came out at 40.03%; in data set [2] (decalcification time 1.0 hour), 43.29%; in data set [2] (decalcification time 1.5 hour), 44.12%; in data set [2] (decalcification time 2.0 hour) it was 44.02%; in data set [2] (decalcification time 3.0 hour) it was 44.33%; in data set [2] (decalcification time 5.0 hour), 44.79%. Also, the “Inhibition rate of decalcification” value in data set [2] (decalcification time 24.0 hour) is on record as 44.93%; in data set [2] (decalcification time 48.0 hour), 45.45%. Also, the “LD50 (p.o.)” value in data set [3] was “about 90 mg per kg of body weight”.
